Reference: patent US12116636B2, “Methods for evaluating tumor cell spheroids using 3D microfluidic cell culture device” (Dana-Farber Cancer Institute, Inc., priority 2017, dated 2024)
Where two headings read alike, the source gives them in different places.

Key:
[1] = target: T1, off-target kinases (Homo sapiens, UniProt Q02156); assay: SelectScreen Kinase Profiling, biochemical single point inhibition; settings: ATP Km, ZLYTE
T1 sequence (Q02156 1-737): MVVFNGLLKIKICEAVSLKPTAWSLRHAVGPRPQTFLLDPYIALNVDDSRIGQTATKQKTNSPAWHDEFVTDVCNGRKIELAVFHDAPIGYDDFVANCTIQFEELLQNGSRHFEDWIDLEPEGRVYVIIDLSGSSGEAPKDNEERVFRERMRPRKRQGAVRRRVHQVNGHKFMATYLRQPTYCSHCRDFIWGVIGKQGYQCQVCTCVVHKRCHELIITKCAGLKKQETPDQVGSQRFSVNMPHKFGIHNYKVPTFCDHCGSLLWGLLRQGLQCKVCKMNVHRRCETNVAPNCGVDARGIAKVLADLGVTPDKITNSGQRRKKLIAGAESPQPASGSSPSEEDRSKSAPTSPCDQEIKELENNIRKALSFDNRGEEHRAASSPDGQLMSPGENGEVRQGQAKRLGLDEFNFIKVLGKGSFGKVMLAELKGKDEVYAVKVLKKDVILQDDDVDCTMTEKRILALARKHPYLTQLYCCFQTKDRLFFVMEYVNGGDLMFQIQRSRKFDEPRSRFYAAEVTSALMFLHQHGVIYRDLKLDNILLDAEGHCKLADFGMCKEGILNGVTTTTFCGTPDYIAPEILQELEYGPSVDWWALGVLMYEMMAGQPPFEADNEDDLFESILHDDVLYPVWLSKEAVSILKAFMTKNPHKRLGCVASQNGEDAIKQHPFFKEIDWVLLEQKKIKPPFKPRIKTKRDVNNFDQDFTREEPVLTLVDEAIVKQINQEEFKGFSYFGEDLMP
Procedure: (§1) Biochemical single point inhibition and IC50 concentrations for TBK1, IKKε (IKBKE), and off-target kinases were determined at ThermoFisher Scientific using SelectScreen Kinase Profiling Services (Madison, WI, USA) (Tables S4A and S4B-1-7). To determine cellular potency, the human colorectal cancer carcinoma cell line HCT116 (ATCC, Manassas, VA) was maintained in T175 flasks in complete RPMI medium; RPMI 1640 supplemented with 10% FBS, 1× Penicillin-Streptomycin solution and 1× MEM (non-essential amino acids). HCT116 cells were grown to 90-95% confluency in T175 flasks containing complete RPMI medium and transfected in bulk using Lipofectamine 2000 (Invitrogen, Carlsbad, CA) with 70 μg of ISG54-luciferase reporter plasmid (Elim Biopharmaceuticals Inc., Hayward, CA). The reporter plasmid contains a luciferase gene expression cassette under the transcriptional regulation of the promoter of the human interferon stimulated gene 54 (ISG54). Transfection of the cells was allowed to take place for 6 hours, after which the cells were harvested by treatment with 0.25% trypsin EDTA (Corning Inc., Corning, NY). Trypsinized cells were added to 384-well poly-d-lysine treated black clear bottom tissue culture assay plates (Greiner Bio-One GmbH, Kremsmunster, Austria) at a density of 20,000 cells/well in 80 μL of complete RPMI medium and incubated overnight. After 16-18 hours post-transfection, the assay plates were washed with PBS (Corning Inc., Corning, NY), followed by addition of 80 μL/well of serum-free RPMI 1640 medium containing 1× Penicillin-Streptomycin solution, 1× MEM and 350 nL of DMSO or titrations of Compound 1. Compound 1 titrations were generated by 1.5-fold dilution steps in two overlapping serial dilution series to generate a 40-point compound dose range. After incubation at 37° C. for 1 hour, the cells were stimulated with Poly(I:C) (InvivoGen, San Diego, CA) at a final concentration of 15 μg/mL in Optimem media (Life Technologies, Rockville, MD). The assay plates were incubated for 5 hours at 37° C., followed by addition of One-Glo luciferase firefly reagent (Promega, Madison, WI) at 1:1 volume/well and luminescence was measured in an EnVision Multilabel Plate Reader (PerkinElmer, Santa Clara, CA). The EC50 values were calculated from the fit of the dose-response curves to a four-parameter equation. All EC50 values represent geometric mean values of a minimum of four determinations.

[2] = target: off-target kinases (Homo sapiens, UniProt Q16644); assay: as above; settings: MAPKAPK3, ATP Km app, ZLYTE
Sequence of off-target kinases (Homo sapiens, UniProt Q16644) (Q16644 whole entry): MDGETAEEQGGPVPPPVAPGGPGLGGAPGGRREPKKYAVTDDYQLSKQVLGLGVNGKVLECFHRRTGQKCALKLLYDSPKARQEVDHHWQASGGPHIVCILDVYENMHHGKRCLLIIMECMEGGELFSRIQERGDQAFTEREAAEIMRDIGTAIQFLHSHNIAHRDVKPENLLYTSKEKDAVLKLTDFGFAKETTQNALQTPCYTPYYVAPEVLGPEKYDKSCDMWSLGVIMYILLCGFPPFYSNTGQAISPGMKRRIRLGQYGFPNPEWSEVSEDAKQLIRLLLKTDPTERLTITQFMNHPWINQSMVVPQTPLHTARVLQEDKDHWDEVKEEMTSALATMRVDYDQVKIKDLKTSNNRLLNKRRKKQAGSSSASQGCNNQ
Procedure: as §1

[3] = system: CT26 allograft; assay: In vivo Compound 1 combination treatment, allograft; design: species or system Balb/c mice; settings: Compound 1 40 mg/kg oral daily + anti-PD-L1 10 mg/kg every 5 days
Procedure: Combination studies were performed by vivoPharm (Hummelstown, PA, USA). All procedures used in the performance of these studies were carried out in accordance with vivoPharm's Standard Operating Procedures, with particular reference to US_SOPvP_EF0314 “General Procedures for Efficacy Studies.” CT26 colon carcinoma cells (1×10^6 cells/mouse in 100 μL, passage 2-3) were re-suspended in serum-free DMEM and implanted in the upper right flank of 11-12 week old female Balb/c mice (Charles River Laboratories). Mice were randomized into four groups of 10 using a matched pair distribution method based on tumor size for CT26. Treatment was initiated 12 days post-inoculation with mean tumor volume at start of dosing of 125.85 mm^3. Vehicle or Compound 1 (40 mg/kg) was administered by oral gavage daily for 26 days and isotype control or a reverse chimera anti-PD-L1 cloned from literature reports (e.g., Deng, R. et al. MAbs (2016), the content of which is incorporated herein by reference in entirety) and placed into a mouse IgG1 framework (10 mg/kg) was administered every 5 days for a total of six doses. Investigators were not blinded to treatment groups. […] Mice were scarified on Day 13 and lung metastases were quantified (small≤1 mm, medium>1 mm and ≤3 mm, large>3 mm). No large lung metastases were detected.

N#Cc1cc(-c2ncnc(Nc3ccc(N4CCN(C5COC5)CC4)cc3)n2)ccc1OC1CCOCC1 [Compound 1, 5-(4-((4-(4-(oxetan-3-yl)piperazin-1-yl)phenyl)amino)-1,3,5-triazin-2-yl)-2-((tetrahydro-2H-pyran-4-yl)oxy)benzonitrile]
inhibition ([1]; PRKCE (PKC), read-out: % Inhibition 1): 1%
inhibition ([1]; PRKCE (PKC), read-out: % Inhibition Avg): -3%
inhibition ([1]; PRKCE PKC, read-out: % Inhibition 2): -6%
inhibition ([2]; read-out: % Inhibition 1): 1%
inhibition ([2]; read-out: % Inhibition 2): -8%
inhibition ([2]; read-out: % Inhibition Avg): -3%
survival, CT26 allograft, combination vs Cmpd1 or anti-PD-L1 alone [3]: longer survival
tumour control, CT26 allograft, combination vs Cmpd1 or anti-PD-L1 alone [3]: greater tumour control
